Experimental data taken from patent publication US20100292185A1, “BETA-LACTAMASE INHIBITORS” (priority 2009, published 2010).
Read-outs that look alike come from different tables or passages of the source.

What was measured:
SHV-5 β-lactamase = molecular target: T1, SHV-5 β-lactamase (Klebsiella pneumoniae, UniProt P0A3M1); test: β-lactamase enzyme inhibition assay (nitrocefin substrate), SHV-5; assay type: biochemical
T1 construct: expressed as native untagged proteins; made in house; host or cells: E. coli BL21(DE3)
T1 sequence (P0A3M1 22-286): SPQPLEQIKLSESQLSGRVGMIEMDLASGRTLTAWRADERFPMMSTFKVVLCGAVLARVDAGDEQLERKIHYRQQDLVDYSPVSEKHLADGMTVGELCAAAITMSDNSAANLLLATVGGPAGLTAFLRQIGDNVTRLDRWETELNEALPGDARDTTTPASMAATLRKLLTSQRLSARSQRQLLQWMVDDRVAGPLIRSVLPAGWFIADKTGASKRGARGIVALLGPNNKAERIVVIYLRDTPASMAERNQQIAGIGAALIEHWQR
In short: (§1)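 Native untagged enzymes were expressed in E. coli BL21(DE3) and purified by cation exchange and gel filtration. Compounds (100–0.005 µM, PBS pH 7.0) were preincubated with enzyme for 10 min at 37 °C, then 100 µM nitrocefin was added and read kinetically at 486 nm for 10 min. IC50 is the concentration giving 50% reduction of initial hydrolysis rate versus uninhibited controls.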

CTX-M15 β-lactamase = molecular target: T2, CTX-M15 β-lactamase (Escherichia coli, UniProt Q9EXV5); test: β-lactamase enzyme inhibition assay (nitrocefin substrate), CTXM-15; assay type: biochemical
T2 construct: expressed as native untagged proteins; made in house; host or cells: E. coli BL21(DE3)
T2 sequence (Q9EXV5 entry or part of it): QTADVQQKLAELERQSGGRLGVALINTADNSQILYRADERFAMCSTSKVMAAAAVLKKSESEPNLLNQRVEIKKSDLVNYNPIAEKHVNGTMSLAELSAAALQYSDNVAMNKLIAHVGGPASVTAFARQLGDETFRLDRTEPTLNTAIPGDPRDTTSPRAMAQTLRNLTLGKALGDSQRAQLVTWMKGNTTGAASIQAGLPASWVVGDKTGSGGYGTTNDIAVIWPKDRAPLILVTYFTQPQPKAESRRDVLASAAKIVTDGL
In short: as §1

p99 AmpC β-lactamase = molecular target: T3, p99 AmpC β-lactamase (Enterobacter cloacae, UniProt P05364); test: β-lactamase enzyme inhibition assay (nitrocefin substrate), P99 AmpC; assay type: biochemical; conditions: nitrocefin 100 μM, 37° C., PBS pH 7.0; read-out: P99 AmpC IC50
T3 construct: expressed as native untagged proteins; made in house; host or cells: E. coli BL21(DE3)
T3 sequence (P05364 21-381): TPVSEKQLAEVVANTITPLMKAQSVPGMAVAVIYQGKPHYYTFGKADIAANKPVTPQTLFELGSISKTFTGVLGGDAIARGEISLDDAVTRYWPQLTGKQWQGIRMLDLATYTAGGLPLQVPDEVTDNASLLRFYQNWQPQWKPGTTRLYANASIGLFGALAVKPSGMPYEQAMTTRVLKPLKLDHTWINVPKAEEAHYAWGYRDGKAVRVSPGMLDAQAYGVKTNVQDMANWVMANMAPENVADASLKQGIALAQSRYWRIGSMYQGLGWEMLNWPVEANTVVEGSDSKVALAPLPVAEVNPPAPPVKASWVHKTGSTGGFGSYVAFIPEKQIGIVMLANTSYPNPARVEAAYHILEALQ
In short: as §1

KPC-2 β-lactamase = molecular target: T4, KPC-2 β-lactamase (Klebsiella pneumoniae, UniProt Q9F663); test: β-lactamase enzyme inhibition assay (nitrocefin substrate), KPC-2; assay type: biochemical
T4 construct: expressed as native untagged proteins; made in house; host or cells: E. coli BL21(DE3)
T4 sequence (Q9F663 25-293 limits assumed): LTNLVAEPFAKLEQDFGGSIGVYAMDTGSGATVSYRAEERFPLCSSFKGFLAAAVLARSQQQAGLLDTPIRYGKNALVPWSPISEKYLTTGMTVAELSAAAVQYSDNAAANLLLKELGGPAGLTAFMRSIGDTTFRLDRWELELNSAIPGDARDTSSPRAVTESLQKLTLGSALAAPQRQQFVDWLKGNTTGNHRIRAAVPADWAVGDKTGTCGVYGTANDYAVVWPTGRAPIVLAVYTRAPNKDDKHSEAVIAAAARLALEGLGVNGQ
In short: as §1

[1] = molecular target: T5, VIM-2 metallo β-lactamase (Pseudomonas aeruginosa, UniProt Q9K2N0); test: β-lactamase enzyme inhibition assay (nitrocefin substrate), VIM-2; assay type: biochemical; conditions: nitrocefin 100 μM, 37° C., PBS pH 7.0; read-out: VIM-2 IC50
T5 construct: made in house
In short: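 VIM-2 was expressed untagged in E. coli BL21(DE3) and purified by two Q sepharose anion-exchange runs plus gel filtration to >90% purity. Compounds at 100–0.005 μM in PBS pH 7.0 were preincubated with enzyme for 10 min at 37° C, then nitrocefin was added at 100 μM final. Hydrolysis was followed kinetically at 486 nm for 10 min; IC50 is the concentration halving the initial rate relative to no-inhibitor wells.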

OXA-23 β-lactamase = molecular target: T6, OXA-23 β-lactamase (Acinetobacter baumannii, UniProt Q9L4P2); test: β-lactamase enzyme inhibition assay (nitrocefin substrate), OXA-23 crude extract; assay type: biochemical; conditions: nitrocefin 100 μM, 37° C., PBS pH 7.0; read-out: OXA-23 IC50
T6 construct: crude β-lactamase extracts were prepared from 20 ml overnight cultures; endogenous in cells; host or cells: Acinetobacter baumannii cells containing OXA-23 (crude freeze-thaw extract)
T6 sequence (Q9L4P2 18-273): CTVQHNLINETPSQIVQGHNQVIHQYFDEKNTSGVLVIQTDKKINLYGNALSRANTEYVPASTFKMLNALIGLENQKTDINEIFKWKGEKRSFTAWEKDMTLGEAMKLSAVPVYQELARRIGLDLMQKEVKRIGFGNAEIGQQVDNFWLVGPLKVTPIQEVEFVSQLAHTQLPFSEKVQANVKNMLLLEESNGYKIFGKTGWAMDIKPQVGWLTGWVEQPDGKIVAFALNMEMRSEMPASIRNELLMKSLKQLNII
In short: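 Crude enzyme came from freeze-thaw extracts of mid-log OXA-23-carrying A. baumannii grown in MH-II broth at 37° C. Inhibitors (100–0.005 μM in PBS pH 7.0) were preincubated with the enzyme for 10 min at 37° C, then 100 μM nitrocefin (final) was added and read kinetically at 486 nm for 10 min. IC50 was taken from initial hydrolysis rates relative to uninhibited controls.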

[2] = test system: E. coli expressing the Class A ESBL SHV-5; test: In vitro antibacterial assay of β-lactamase inhibition (broth microdilution MIC), E. coli SHV-5; assay type: cell-based; conditions: in presence of Ceftazidime 8 μg/ml (Examples 1-56)
In short: (§2)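 Each strain, maintained under 50 μg/mL ampicillin selection, was exposed to twofold compound dilutions (final range 8 μg/mL to 0.015 μg/ml) combined with a β-lactam antibiotic in cation-adjusted Mueller Hinton broth. The MIC was judged visually following overnight (16-20 h) incubation at 37° C.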

[3] = test system: K. pneumoniae expressing the Class A Extended Spectrum Beta-Lactamase (ESBL) CTX-M-15; test: In vitro antibacterial assay of β-lactamase inhibition (broth microdilution MIC), K. pneumoniae CTX-M-15; assay type: cell-based; conditions: in presence of Ceftazidime 8 μg/ml (Examples 1-56)
In short: as §2

[4] = test system: E. cloacae expressing the Class C P99+; test: In vitro antibacterial assay of β-lactamase inhibition (broth microdilution MIC), E. cloacae P99+; assay type: cell-based; conditions: in presence of Ceftazidime 8 μg/ml (Examples 1-56)
In short: as §2

[5] = test system: K. pneumoniae expressing the Class A carbapenemase KPC-2; test: microbe, parasite or virus in culture; assay type: cell-based; conditions: in presence of Ceftazidime 8 μg/ml (Examples 1-56)
In short: as §2

[6] = test system: P. aeruginosa expressing the Class B metallo β-lactamase VIM-2; test: In vitro antibacterial assay of β-lactamase inhibition (broth microdilution MIC), P. aeruginosa VIM-2; assay type: cell-based; conditions: in presence of Ceftazidime 16 μg/mL (Examples 1-56)
In short: as §2

[7] = nitrocefin 100 μM, 37° C., PBS pH 7.0, read-out: SHV-5 IC50
[8] = nitrocefin 100 μM, 37° C., PBS pH 7.0, read-out: CTXM-15 IC50
[9] = nitrocefin 100 μM, 37° C., PBS pH 7.0, read-out: KPC-2 IC50

CCC(=O)C(=O)N[C@@H](Cc1cccc(C(=O)O)c1O)B(O)O [Example 56, 3-[2(R)-(2-oxo-butyrylamino)-2-borono-ethyl]-2-hydroxy-benzoic acid]
IC50 (SHV-5 β-lactamase): 195 nM
IC50 (CTX-M15 β-lactamase): 11 nM
IC50 (p99 AmpC β-lactamase): 2 nM
IC50 (KPC-2 β-lactamase): 24 nM
IC50 [1]: > 1000 nM
IC50 (OXA-23 β-lactamase): 31 nM
MIC of example compound, E. coli SHV-5 [2]: >8 µg/mL
MIC of example compound, K. pneumoniae CTX-M-15 [3]: 4 µg/mL
MIC of example compound, E. cloacae P99+ [4]: 2 µg/mL
MIC of example compound, K. pneumoniae KPC-2 [5]: 0.25 µg/mL
MIC of example compound, P. aeruginosa VIM-2 [6]: >8 µg/mL

(1R)-[3-{(2-hydroxy-ethylamino)-methyl}-benzoylamino]-(3-carboxy-2-hydroxy)benzyl-methylboronic acid formate [Example 43]
IC50 (SHV-5 β-lactamase; [7]): 4 nM
IC50 (CTX-M15 β-lactamase; [8]): 12 nM
IC50 (p99 AmpC β-lactamase): 9 nM
IC50 (KPC-2 β-lactamase; [9]): 70 nM
IC50 [1]: 184 nM
IC50 (OXA-23 β-lactamase): 38 nM
MIC of example compound, E. coli SHV-5 [2]: 2 µg/mL
MIC of example compound, K. pneumoniae CTX-M-15 [3]: 0.5 µg/mL
MIC of example compound, E. cloacae P99+ [4]: 0.5 µg/mL
MIC of example compound, K. pneumoniae KPC-2 [5]: <0.015 µg/mL
MIC of example compound, P. aeruginosa VIM-2 [6]: >8 µg/mL

(2R)-3-[(2-[(2-chloro-pyridin-4-yl-acetyl)-amino]-2-borono-ethyl]-2-hydroxy-benzoic acid hydrochloride [Example 47]
IC50 (SHV-5 β-lactamase; [7]): 1 nM
IC50 (CTX-M15 β-lactamase; [8]): 2 nM
IC50 (p99 AmpC β-lactamase): 5 nM
IC50 (KPC-2 β-lactamase; [9]): 2 nM
IC50 [1]: > 1000 nM
IC50 (OXA-23 β-lactamase): 132 nM
MIC of example compound, E. coli SHV-5 [2]: 0.25 µg/mL
MIC of example compound, K. pneumoniae CTX-M-15 [3]: 0.25 µg/mL
MIC of example compound, E. cloacae P99+ [4]: 1 µg/mL
MIC of example compound, K. pneumoniae KPC-2 [5]: 0.03 µg/mL
MIC of example compound, P. aeruginosa VIM-2 [6]: >8 µg/mL
